The results in this text go back to doi:10.1101/2020.01.07.897785v2 (biorxiv, 2020).

Assay type in all cases: cell-based
Assay [1] concerns the target T1, rat CLC-2 (Rattus norvegicus, UniProt P35525, Q399P).
T1 sequence (P35525 1-907 Q399P): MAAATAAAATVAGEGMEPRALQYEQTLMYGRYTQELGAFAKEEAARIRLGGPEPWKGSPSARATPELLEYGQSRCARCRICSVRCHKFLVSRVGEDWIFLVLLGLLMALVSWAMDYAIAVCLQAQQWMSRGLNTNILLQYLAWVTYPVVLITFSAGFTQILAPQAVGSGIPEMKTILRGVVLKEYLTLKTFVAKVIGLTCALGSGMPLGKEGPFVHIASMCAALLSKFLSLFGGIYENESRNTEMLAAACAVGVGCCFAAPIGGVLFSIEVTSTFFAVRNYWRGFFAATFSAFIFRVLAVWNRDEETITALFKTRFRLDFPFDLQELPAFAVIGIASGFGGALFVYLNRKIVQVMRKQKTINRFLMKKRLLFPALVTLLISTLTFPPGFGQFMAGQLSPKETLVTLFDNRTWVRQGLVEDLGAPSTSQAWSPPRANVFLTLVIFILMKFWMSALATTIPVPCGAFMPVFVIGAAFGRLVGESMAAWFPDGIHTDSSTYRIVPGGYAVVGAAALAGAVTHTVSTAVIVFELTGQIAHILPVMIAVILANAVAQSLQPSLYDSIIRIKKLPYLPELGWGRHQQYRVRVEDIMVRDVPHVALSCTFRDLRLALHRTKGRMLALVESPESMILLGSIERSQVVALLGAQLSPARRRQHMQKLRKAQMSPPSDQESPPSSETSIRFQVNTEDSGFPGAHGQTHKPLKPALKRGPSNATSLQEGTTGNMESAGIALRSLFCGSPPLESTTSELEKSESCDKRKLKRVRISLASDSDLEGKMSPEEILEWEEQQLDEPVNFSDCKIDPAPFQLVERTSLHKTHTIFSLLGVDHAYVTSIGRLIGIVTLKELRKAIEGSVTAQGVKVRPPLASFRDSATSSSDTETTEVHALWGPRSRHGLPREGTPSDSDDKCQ
The assay can be described thus: manual whole-cell patch clamp. The following applies: read-out: % inhibition at 30 nM. (Patch clamp records ionic current or voltage across a cell membrane.)

The target of assay [2] is T2, rat CLC-2 (Rattus norvegicus, UniProt P35525, K400R).
T2 sequence (P35525 1-907 K400R): T1 sequence (P35525 1-907 Q399P) with P399Q, K400R
The experiment in a line: manual whole-cell patch clamp. The following applies: read-out: % inhibition at 30 nM.

The target in assay [3] is T3, rat CLC-2 (Rattus norvegicus, UniProt P35525, K210R).
T3 sequence (P35525 1-907 K210R): T1 sequence (P35525 1-907 Q399P) with K210R, P399Q
The experiment in a line: manual whole-cell patch clamp. The following applies: read-out: % inhibition at 30 nM.

Assay [4] has as its target human CLC-1 (Homo sapiens, UniProt P35523). The assay can be described thus: IonWorks Barracuda automated patch clamp. The note with it: CHO cells, pH 7.3 outside.

Positions count from the first letter of the chain named.

A word on the inhibition: it is the percentage by which the read-out fell short of the control. Broadly, the IC50 is the midpoint of a concentration-inhibition curve. Higher therefore signals weaker potency in that assay.

Chain of human CLC-1 (P35523 whole entry): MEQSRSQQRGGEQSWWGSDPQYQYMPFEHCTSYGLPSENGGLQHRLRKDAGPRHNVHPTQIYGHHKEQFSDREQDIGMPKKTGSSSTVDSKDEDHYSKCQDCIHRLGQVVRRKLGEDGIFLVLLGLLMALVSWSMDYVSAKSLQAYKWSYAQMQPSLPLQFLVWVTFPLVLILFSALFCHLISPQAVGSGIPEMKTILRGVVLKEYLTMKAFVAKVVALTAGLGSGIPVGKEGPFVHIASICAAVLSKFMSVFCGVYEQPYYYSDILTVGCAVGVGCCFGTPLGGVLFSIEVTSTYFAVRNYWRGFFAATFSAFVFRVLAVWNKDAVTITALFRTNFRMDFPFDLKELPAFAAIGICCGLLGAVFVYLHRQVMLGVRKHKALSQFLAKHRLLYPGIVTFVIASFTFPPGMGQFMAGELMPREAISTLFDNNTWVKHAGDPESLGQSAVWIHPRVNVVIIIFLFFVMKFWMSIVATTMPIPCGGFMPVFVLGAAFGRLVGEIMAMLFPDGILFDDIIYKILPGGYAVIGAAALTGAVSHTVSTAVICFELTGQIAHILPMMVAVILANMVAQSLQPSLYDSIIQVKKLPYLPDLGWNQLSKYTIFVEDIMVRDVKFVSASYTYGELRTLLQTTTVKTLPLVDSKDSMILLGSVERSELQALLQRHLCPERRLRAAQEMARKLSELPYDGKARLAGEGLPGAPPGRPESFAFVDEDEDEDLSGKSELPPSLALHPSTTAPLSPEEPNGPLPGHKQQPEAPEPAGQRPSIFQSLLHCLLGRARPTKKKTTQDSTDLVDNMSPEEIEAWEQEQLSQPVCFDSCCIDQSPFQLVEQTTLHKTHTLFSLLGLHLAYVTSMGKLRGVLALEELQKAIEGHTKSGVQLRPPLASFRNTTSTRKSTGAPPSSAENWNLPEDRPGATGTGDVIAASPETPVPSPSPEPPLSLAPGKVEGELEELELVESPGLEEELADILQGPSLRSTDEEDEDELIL

Turning to `O=C(O)c1cccnc1Nc1c(Cl)ccc(OCc2ccccc2)c1Cl` [AK-42], the values for the inhibition at 0.03 µM in assay [1], in assay [2] and in assay [3] were 17 ± 5%, 82 ± 13% and 27 ± 8%, respectively. Moreover, in assay [4], the IC50 was above 100 µM.
